Where a SMILES comes first, the peptide text is derived from it. The star is where a group is joined. X1 = O=C(O)c1ccc2c(c1)nc(OCCCCCCCCC(=O)*)c1ccncc12
Assays:
[1] = target: Insulin-like growth factor 1 receptor (Homo sapiens) (UniProt P08069); assay: Inhibition of human IGF-1R assessed as residual activity at 1 uM in presence of [33P]ATP by filter binding assay relative to control
[2] = target: Fibroblast growth factor receptor 1 (Homo sapiens) (UniProt P11362); assay: Inhibition of human FGFR1 assessed as residual activity at 1 uM in presence of [33P]ATP by filter binding assay relative to control
[3] = target: Serine/threonine-protein kinase ULK1 (Homo sapiens) (UniProt O75385); assay: Inhibition of human ULK1 assessed as residual activity at 1 uM in presence of [33P]ATP by filter binding assay relative to control
[4] = target: Mitogen-activated protein kinase 14 (Homo sapiens) (UniProt Q16539); assay: Inhibition of human p38a MAPK assessed as residual activity at 1 uM in presence of [33P]ATP by filter binding assay relative to control
[5] = species on record: Homo sapiens; assay: Inhibition of human VEGFR assessed as residual activity at 1 uM in presence of 33P-ATP by filter-binding assay relative to control
[6] = target: Dual specificity tyrosine-phosphorylation-regulated kinase 2 (Homo sapiens) (UniProt Q92630); assay: Inhibition of human DYRK2 assessed as residual activity at 1 uM in presence of 33P-ATP by filter-binding assay relative to control
Chain of Dual specificity tyrosine-phosphorylation-regulated kinase 2 (Homo sapiens) (Q92630 whole entry, the tested form may be a part): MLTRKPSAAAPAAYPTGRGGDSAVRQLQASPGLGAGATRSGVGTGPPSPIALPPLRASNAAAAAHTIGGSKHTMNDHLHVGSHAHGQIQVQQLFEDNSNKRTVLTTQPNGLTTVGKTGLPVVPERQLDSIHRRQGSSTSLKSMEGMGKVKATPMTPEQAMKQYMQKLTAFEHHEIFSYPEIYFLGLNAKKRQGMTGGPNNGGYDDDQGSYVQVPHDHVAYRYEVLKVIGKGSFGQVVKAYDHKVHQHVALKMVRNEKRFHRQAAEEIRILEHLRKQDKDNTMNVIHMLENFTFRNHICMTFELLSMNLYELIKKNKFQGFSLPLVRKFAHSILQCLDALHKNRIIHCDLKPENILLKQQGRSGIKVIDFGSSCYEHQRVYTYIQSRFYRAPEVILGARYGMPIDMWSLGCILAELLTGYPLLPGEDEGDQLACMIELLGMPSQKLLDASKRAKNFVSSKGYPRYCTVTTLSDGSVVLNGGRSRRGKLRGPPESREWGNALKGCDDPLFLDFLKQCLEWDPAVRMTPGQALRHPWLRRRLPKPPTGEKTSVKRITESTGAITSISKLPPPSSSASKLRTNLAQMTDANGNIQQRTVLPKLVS

[7] = target: Casein kinase II subunit alpha (Homo sapiens, UniProt P68400); assay: Inhibition of CK2alpha (unknown origin) (1 to 335 residues) using 5-TAMRA-RADDSDDDDD as substrate after 30 mins by fluorescence imaging method
Chain of Casein kinase II subunit alpha (P68400 whole entry, the tested form may be a part): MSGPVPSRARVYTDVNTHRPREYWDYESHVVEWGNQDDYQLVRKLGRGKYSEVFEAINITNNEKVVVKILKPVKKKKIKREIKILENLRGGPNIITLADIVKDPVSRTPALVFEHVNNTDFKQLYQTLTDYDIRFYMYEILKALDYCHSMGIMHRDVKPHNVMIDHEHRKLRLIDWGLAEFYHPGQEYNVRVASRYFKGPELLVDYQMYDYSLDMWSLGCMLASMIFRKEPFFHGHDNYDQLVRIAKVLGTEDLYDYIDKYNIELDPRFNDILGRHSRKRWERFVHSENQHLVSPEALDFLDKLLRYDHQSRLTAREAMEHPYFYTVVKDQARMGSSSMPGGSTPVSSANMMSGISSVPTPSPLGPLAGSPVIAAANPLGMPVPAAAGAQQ

[8] = target: Dual specificity testis-specific protein kinase 1 (Homo sapiens) (UniProt Q15569); assay: Inhibition of human TESK1 assessed as residual activity at 1 uM in presence of [33P]ATP by filter binding assay relative to control
[9] = target: Mitogen-activated protein kinase kinase kinase 5 (Homo sapiens) (UniProt Q99683); assay: Inhibition of human ASK1 assessed as residual activity at 1 uM in presence of [33P]ATP by filter binding assay relative to control
Chain of Mitogen-activated protein kinase kinase kinase 5 (Homo sapiens) (Q99683 whole entry): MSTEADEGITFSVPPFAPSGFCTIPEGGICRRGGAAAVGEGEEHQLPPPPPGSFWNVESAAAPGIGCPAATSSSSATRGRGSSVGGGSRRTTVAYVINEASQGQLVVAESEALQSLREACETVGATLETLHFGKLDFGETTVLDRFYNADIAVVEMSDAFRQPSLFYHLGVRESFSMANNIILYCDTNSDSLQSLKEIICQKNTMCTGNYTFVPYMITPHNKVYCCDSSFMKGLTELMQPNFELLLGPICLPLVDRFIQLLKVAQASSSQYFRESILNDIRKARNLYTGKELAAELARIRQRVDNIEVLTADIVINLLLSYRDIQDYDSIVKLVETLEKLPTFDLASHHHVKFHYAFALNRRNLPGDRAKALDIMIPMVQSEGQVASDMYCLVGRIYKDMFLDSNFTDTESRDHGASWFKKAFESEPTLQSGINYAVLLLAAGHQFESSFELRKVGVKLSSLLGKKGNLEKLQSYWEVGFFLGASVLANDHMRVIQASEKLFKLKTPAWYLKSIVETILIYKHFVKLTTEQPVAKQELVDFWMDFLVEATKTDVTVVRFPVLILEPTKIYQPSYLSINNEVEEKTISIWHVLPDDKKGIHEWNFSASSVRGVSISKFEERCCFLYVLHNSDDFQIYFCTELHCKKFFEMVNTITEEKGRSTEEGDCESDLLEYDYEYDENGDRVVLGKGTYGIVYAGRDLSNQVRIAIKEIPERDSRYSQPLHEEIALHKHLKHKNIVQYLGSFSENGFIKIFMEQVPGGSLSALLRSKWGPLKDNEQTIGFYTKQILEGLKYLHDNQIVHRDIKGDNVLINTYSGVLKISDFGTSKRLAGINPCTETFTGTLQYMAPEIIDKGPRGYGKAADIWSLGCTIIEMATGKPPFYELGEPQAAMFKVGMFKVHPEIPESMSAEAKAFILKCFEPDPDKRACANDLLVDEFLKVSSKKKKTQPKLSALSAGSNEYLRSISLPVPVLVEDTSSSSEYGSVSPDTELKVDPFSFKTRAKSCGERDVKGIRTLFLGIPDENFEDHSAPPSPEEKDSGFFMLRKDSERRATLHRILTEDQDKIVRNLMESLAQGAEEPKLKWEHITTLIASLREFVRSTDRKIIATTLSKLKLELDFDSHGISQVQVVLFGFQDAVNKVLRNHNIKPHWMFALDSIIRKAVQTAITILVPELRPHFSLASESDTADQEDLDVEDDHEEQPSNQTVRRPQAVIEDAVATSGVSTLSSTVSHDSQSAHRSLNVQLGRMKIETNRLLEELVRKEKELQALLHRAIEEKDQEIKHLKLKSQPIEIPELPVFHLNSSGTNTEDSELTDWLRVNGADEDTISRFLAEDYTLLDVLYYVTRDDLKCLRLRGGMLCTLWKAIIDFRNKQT

[10] = target: Serine/threonine-protein kinase SIK2 (Homo sapiens) (UniProt Q9H0K1); assay: Inhibition of human SIK2 assessed as residual activity at 1 uM in presence of [33P]ATP by filter binding assay relative to control
[11] = target: Serine/threonine-protein kinase 16 (Homo sapiens) (UniProt O75716); assay: Inhibition of human MPSK1 assessed as residual activity at 1 uM in presence of [33P]ATP by filter binding assay relative to control
[12] = target: Ribosomal protein S6 kinase alpha-5 (Homo sapiens) (UniProt O75582); assay: Inhibition of human MSK1 assessed as residual activity at 1 uM in presence of 33P-ATP by filter-binding assay relative to control
[13] = target: Tyrosine-protein kinase ZAP-70 (Homo sapiens) (UniProt P43403); assay: Inhibition of human ZAP70 assessed as residual activity at 1 uM in presence of [33P]ATP by filter binding assay relative to control
[14] = target: Protein kinase C gamma type (Homo sapiens) (UniProt P05129); assay: Inhibition of human PKCgamma assessed as residual activity at 1 uM in presence of [33P]ATP by filter binding assay relative to control
[15] = target: Mitogen-activated protein kinase 7 (Homo sapiens) (UniProt Q13164); assay: Inhibition of human ERK5 assessed as residual activity at 1 uM in presence of 33P-ATP by filter-binding assay relative to control
[16] = target: MAP/microtubule affinity-regulating kinase 3 (Homo sapiens) (UniProt P27448); assay: Inhibition of human MARK3 assessed as residual activity at 1 uM in presence of [33P]ATP by filter binding assay relative to control
[17] = target: Mitogen-activated protein kinase kinase kinase 11 (Homo sapiens) (UniProt Q16584); assay: Inhibition of human MLK3 assessed as residual activity at 1 uM in presence of 33P-ATP by filter-binding assay relative to control
Chain of Mitogen-activated protein kinase kinase kinase 11 (Homo sapiens) (Q16584 whole entry, looked up): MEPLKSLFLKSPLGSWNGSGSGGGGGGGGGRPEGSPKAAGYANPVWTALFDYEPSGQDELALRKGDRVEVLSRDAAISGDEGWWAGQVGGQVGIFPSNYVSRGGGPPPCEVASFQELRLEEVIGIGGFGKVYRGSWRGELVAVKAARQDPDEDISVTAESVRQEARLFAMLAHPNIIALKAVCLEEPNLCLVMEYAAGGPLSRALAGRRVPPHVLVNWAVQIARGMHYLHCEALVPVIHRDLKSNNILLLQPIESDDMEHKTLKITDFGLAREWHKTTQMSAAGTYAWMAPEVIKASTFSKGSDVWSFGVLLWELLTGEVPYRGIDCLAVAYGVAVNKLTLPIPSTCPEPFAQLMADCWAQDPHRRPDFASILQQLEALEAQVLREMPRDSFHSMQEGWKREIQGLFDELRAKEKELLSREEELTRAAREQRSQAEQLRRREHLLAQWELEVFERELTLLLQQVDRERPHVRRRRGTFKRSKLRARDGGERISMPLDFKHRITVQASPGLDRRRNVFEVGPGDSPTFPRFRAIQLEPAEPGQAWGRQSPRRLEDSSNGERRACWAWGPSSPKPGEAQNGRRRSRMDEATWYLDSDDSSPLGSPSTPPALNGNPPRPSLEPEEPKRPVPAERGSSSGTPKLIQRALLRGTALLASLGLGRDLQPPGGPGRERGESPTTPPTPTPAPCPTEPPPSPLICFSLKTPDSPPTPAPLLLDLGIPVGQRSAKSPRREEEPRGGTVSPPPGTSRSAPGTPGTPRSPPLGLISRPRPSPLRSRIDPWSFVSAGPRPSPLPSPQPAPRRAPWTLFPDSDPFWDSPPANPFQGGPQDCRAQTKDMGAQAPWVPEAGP

[18] = target: Protein kinase C zeta type (Homo sapiens) (UniProt Q05513); assay: Inhibition of human PKCZ assessed as residual activity at 1 uM in presence of [33P]ATP by filter binding assay relative to control
[19] = target: Casein kinase I isoform gamma-2 (Homo sapiens) (UniProt P78368); assay: Inhibition of human CK1gamma2 assessed as residual activity at 1 uM in presence of [33P]ATP by filter binding assay relative to control
[20] = target: Serine/threonine-protein kinase 3 (Homo sapiens) (UniProt Q13188); assay: Inhibition of human MST2 assessed as residual activity at 1 uM in presence of [33P]ATP by filter binding assay relative to control
[21] = target: AMP-activated protein kinase, AMPK (Homo sapiens) (UniProt P54646+O43741+P54619+Q9UGJ0+Q9Y478+Q13131+Q9UGI9); assay: Inhibition of human AMPK assessed as residual activity at 1 uM in presence of 33P-ATP by filter-binding assay relative to control
[22] = target: Serine/threonine-protein kinase SIK3 (Homo sapiens) (UniProt Q9Y2K2); assay: Inhibition of human SIK3 assessed as residual activity at 1 uM in presence of [33P]ATP by filter binding assay relative to control
Chain of Serine/threonine-protein kinase SIK3 (Homo sapiens) (Q9Y2K2 whole entry, looked up): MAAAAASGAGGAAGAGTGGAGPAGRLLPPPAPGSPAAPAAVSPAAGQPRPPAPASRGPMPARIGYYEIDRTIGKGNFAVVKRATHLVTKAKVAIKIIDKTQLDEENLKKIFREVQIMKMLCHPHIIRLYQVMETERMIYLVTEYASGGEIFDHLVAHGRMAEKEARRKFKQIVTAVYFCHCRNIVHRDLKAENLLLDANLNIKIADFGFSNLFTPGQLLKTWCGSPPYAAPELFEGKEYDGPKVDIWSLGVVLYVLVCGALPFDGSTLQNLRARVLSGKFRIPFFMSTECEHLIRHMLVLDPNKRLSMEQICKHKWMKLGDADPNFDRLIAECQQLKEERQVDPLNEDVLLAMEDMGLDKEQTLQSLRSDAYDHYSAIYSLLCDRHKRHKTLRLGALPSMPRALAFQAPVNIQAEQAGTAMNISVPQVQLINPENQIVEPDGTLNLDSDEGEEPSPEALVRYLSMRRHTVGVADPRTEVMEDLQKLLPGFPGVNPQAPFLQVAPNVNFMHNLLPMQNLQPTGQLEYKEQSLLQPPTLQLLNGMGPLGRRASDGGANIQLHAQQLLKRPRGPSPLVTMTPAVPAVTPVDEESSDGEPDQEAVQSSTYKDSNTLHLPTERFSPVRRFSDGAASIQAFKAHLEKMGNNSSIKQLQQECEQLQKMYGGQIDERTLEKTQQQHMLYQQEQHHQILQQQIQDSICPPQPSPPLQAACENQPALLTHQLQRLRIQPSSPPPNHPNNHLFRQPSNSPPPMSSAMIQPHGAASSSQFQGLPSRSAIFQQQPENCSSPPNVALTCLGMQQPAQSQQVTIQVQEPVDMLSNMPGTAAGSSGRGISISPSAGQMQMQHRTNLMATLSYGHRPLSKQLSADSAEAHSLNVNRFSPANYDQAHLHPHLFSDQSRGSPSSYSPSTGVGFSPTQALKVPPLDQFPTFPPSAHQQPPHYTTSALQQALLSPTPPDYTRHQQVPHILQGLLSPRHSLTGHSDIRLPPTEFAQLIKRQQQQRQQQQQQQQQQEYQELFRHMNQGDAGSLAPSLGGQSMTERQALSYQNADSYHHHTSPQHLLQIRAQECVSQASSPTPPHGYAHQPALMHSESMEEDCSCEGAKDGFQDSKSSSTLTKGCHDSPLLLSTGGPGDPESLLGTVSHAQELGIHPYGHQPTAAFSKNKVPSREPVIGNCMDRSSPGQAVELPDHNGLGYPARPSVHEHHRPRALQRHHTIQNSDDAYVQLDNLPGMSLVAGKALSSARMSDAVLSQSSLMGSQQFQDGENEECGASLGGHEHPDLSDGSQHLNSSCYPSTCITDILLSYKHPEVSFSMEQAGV

[23] = target: Mitogen-activated protein kinase 9 (Homo sapiens) (UniProt P45984); assay: Inhibition of human JNK2 assessed as residual activity at 1 uM in presence of [33P]ATP by filter binding assay relative to control
[24] = target: Serine/threonine-protein kinase TAO1 (Homo sapiens) (UniProt Q7L7X3); assay: Inhibition of human TAO1 assessed as residual activity at 1 uM in presence of 33P-ATP by filter-binding assay relative to control
[25] = target: Serine/threonine-protein kinase 24 (Homo sapiens) (UniProt Q9Y6E0); assay: Inhibition of human MST3 assessed as residual activity at 1 uM in presence of [33P]ATP by filter binding assay relative to control
Chain of Serine/threonine-protein kinase 24 (Homo sapiens) (Q9Y6E0 whole entry, looked up): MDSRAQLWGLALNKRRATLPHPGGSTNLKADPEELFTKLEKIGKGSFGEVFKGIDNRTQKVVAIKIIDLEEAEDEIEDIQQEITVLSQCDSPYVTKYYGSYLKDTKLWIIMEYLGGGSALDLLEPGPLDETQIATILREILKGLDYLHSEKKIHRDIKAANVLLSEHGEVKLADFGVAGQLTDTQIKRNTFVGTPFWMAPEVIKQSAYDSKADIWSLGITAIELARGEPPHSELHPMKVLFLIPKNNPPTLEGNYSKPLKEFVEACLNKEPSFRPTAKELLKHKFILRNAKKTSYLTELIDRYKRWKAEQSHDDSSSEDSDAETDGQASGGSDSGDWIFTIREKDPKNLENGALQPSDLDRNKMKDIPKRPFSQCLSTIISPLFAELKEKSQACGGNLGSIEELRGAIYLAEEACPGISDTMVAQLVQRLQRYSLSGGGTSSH

[26] = target: Tau-tubulin kinase 2 (Homo sapiens) (UniProt Q6IQ55); assay: Inhibition of human TTBK2 assessed as residual activity at 1 uM in presence of [33P]ATP by filter binding assay relative to control
[27] = target: Ephrin type-B receptor 1 (Homo sapiens) (UniProt P54762); assay: Inhibition of human EPHB1 assessed as residual activity at 1 uM in presence of [33P]ATP by filter binding assay relative to control
[28] = target: Serine/threonine-protein kinase BRSK1 (Homo sapiens) (UniProt Q8TDC3); assay: Inhibition of human BRSK1 assessed as residual activity at 1 uM in presence of 33P-ATP by filter-binding assay relative to control
[29] = target: Mitogen-activated protein kinase kinase kinase kinase 5 (Homo sapiens) (UniProt Q9Y4K4); assay: Inhibition of human MAP4K5 assessed as residual activity at 1 uM in presence of [33P]ATP by filter binding assay relative to control

NCCCC[C@H](NC(=O)[C@H](CC(=O)O)NC(=O)[C@H](CC(=O)O)NC(=O)[C@H](CC(=O)O)NC(=O)[C@H](CC(=O)O)NC(=O)[C@H](CC(=O)O)NC(=O)[C@H](CC(=O)O)NC(=O)CCCCCCCCOc1nc2cc(C(=O)O)ccc2c2cnccc12)C(=O)O (X1-DDDDDDK-OH)
Activity [1]: 79%
Activity [2]: 92%
Activity [3]: 90%
Activity [4]: 89%
Activity [5]: 63%
Activity [6]: 5%
IC50 [7]: 4 nM
Activity [8]: 94%
Activity [9]: 118%
Activity [10]: 99%
Activity [11]: 118%
Activity [12]: 58%
Activity [13]: 103%
Activity [14]: 94%
Activity [15]: 39%
Activity [16]: 84%
Activity [17]: 22%
Activity [18]: 95%
Activity [19]: 86%
Activity [20]: 92%
Activity [21]: 11%
Activity [22]: 90%
Activity [23]: 79%
Activity [24]: 65%
Activity [25]: 93%
Activity [26]: 101%
Activity [27]: 89%
Activity [28]: 63%
Activity [29]: 87%
